From US20120214847A1, “2-[1-PHENYL-5-HYDROXY-4a-SUBSTITUTED-HEXAHYDROCYCLOPENTA[F]INDAZOL-5-YL]ETHYL PHENYL DERIVATIVES AS GLUCOCORTICOID RECEPTOR LIGANDS” (Merck Sharp & Dohme Corp., priority 2009, published 2012)

Biological target: T1, human GR (Homo sapiens, UniProt P04150)
T1 construct: naturally expresses the human GR; endogenous in cells
T1 sequence (P04150 1-777): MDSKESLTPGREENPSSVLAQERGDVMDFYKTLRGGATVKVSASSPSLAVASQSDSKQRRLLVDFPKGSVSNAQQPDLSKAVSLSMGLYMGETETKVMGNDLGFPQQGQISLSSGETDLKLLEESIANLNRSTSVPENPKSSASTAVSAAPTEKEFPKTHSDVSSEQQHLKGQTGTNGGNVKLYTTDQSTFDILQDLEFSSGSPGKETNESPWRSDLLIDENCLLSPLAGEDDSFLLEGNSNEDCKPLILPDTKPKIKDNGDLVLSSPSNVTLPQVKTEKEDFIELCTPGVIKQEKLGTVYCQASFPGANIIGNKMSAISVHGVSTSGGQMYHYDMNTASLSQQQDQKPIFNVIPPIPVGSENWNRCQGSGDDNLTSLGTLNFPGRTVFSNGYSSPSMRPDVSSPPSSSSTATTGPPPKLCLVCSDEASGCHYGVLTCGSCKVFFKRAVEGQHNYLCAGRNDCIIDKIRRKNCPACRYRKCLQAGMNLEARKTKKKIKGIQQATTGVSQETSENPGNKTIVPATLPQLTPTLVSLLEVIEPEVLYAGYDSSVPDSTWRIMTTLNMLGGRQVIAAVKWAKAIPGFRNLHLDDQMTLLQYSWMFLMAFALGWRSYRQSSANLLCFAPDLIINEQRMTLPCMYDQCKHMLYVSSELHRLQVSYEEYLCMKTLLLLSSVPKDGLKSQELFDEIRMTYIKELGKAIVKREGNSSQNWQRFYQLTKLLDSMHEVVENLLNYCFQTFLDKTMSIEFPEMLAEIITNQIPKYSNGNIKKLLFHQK
Experiment: Trans-activation modulation of glucocorticoid receptor (GRAMMER), MMTV-LUC reporter in A549 cells
Assay type: cell-based
Conditions: for Emax: A549, A549 cells, Emax relative to the activity obtained with 300 nM dexamethasone, read-out: Transactivation A549 Cells Grammer Emax (%); for EC50: A549 cells, IP = inflection point, read-out: Transactivation A549 Cells Grammer IP
From the text: Trans-Activation Modulation of Glucocorticoid Receptor (GRAMMER)
This assay assesses the ability of test compounds to control transcription from the MMTV-LUC reporter gene in lung adenocarcinoma A549 cells or HeLa cells, a human […] cell line that naturally expresses the human GR. The assay measures induction of a modified MMTV LTR/promoter linked to the LUC reporter gene.
The routine transient assay consists of plating 7,000-25,000 cells/well of a white, clear-bottom 96-well plate. Alternatively, 384-well plates can be used at a cell concentration of 10,000/well. The media that the cells are plated in is “exponential growth medium” which consists of phenol red-free RPMI1640 containing 10% FBS, 4 mM L-glutamine, 20 mM HEPES, 10 ug/mL human insulin, and 20 ug/mL gentamicin. Incubator conditions are 37° C. and 5% C02. The transfection is done in batch mode. The cells are trypsinized and counted to the right cell number in the proper amount of fresh media. It is then gently mixed with the FuGene6/DNA 25 mix and plated onto the 96 or 384-well plate, all the wells receive 100 uL or 40 uL, respectively, of medium+lipid/DNA complex then incubated 37° C. overnight. The transfection cocktail consists of serum-free OptiMEM, FuGene6 reagent and DNA. The manufacturer's (Roche Biochemical) protocol for cocktail setup is as follows: The lipid to DNA ratio is approximately 2.5:1 and the incubation time is 20 min at room temperature. Sixteen to 24 h after transfection, the cells are treated with dexamethasone to a final concentration of 10 nM as well as the compound of interest, such that final DMSO (vehicle) concentration is equal to or less than 1%. Each plate also contains samples that are treated with 10 nM dexamethasone alone, which is used as the 100% activity control. The cells are exposed to the compounds for 24 h. After 24 h, the cells are lysed by a Promega cell culture lysis buffer for approximately 30 min and then the luciferase activity in the extracts is assayed in the 96-well format luminometer. In 384 well format, Steady-Glo (Promega) or Steady-Lite (PerkinElmer) can be used by adding an equal volume of reagent to the media present in each well. Activity induced by 10 nM dexamethasone alone is set at 100% activity. Antagonist activity is calculated by determining the decrease in dexamethasone-induced activity in response to compound treatment relative to samples that were treated with dexamethasone alone. Results are expressed as % inhibition of 10 nM dexamethasone activity or as fold of 10 nM dexamethasone activity. This transactivation assay can be performed in an agonist and antagonist mode to identify these different activities.
Activity of test compounds is calculated as the Emax relative to the activity obtained with 300 nM dexamethasone. […] The exemplified tissue selective glucocorticoid receptor modulators of the present invention display agonist activity in this assay of greater than 5% and less than 100%, and maximal transactivation activity less then maximal transrepression activity. The action of compounds is also tested in an antagonist mode (Anti-GRAMMER) in which the cells are treated with medium containing an agonist such as 10 nM DEX and the ability of agents to inhibit the activation by an agonist is measured.

Emax [%]	EC50 [nM]	Compound
11	31	NC(=O)[C@H](F)c1c(F)cccc1CC[C@]1(O)CCC2=Cc3c(cnn3-c3ccc(F)cc3)C[C@@]21C1CC1 [Example 57, (2R)-2-(2-{2-[(4aR,5R)-4a-Cyclopropyl-1-(4-fluorophenyl)-5-hydroxy-1,4,4a,5,6,7-hexahydrocyclopenta[f]indazol-5-yl]ethyl}-6-fluorophenyl)-2-fluoroethanamide]
11	9	CS(=O)(=O)c1ccccc1CC[C@]1(O)CCC2=Cc3c(cnn3-c3ccc(F)cc3)C[C@@]21C1CC1 [Example 58, (4aR,5R)-4a-Cyclopropyl-1-(4-fluorophenyl)-5-{2-[2-(methylsulfonyl)phenyl]ethyl}-1,4,4a,5,6,7-hexahydrocyclopenta[f]indazol-5-ol]
7	35	CCS(=O)(=O)c1ccccc1CC[C@]1(O)CCC2=Cc3c(cnn3-c3ccc(F)cc3)C[C@@]21C1CC1 [Example 59, (4aR,5R)-4a-Cyclopropyl-5-{2-[2-(ethylsulfonyl)phenyl]ethyl}-1-(4-fluorophenyl)-1,4,4a,5,6,7-hexahydrocyclopenta[f]indazol-5-ol]
13	66	OC(C[C@]1(O)CCC2=Cc3c(cnn3-c3ccc(F)cc3)C[C@@]21C1CC1)c1ccccn1 (stereo partly drawn) [Example 78, (4aR,5R)-4a-Cyclopropyl-1-(4-fluorophenyl)-5-[2-hydroxy-2-(pyridin-2-yl)ethyl]-1,4,4a,5,6,7-hexahydrocyclopenta[f]indazol-5-ol]
13	187	CC[C@]12Cc3cnn(-c4ccc(F)cc4)c3C=C1CC[C@@]2(O)CC(O)c1cc(C#N)ccn1 (stereo partly drawn) [Example 72, 2-{2-[(4aS,5R)-4a-Ethyl-1-(4-fluorophenyl)-5-hydroxy-1,4,4a,5,6,7-hexahydrocyclopenta[f]indazol-5-yl]-1-hydroxyethyl}pyridine-4-carbonitrile]
31	142	CC[C@]12Cc3cnn(-c4ccc(F)cc4)c3C=C1CC[C@@]2(O)CC(O)c1ncccc1F (stereo partly drawn) [Example 76, (4aS,5R)-4a-Ethyl-1-(4-fluorophenyl)-5-[2-(3-fluoropyridin-2-yl)-2-hydroxyethyl]-1,4,4a,5,6,7-hexahydrocyclopenta[f]indazol-5-ol]
47	260	NC(=O)CNC(=O)c1cccnc1CC[C@]1(O)CCC2=Cc3c(cnn3-c3ccc(F)cc3)C[C@@]21C1CC1 [Example 43, N-(2-Amino-2-oxoethyl)-2-{2-[(4aR,5R)-4a-cyclopropyl-1-(4-fluorophenyl)-5-hydroxy-1,4,4a,5,6,7-hexahydrocyclopenta[f]indazol-5-yl]ethyl}pyridine-3-carboxamide]
57	12	O=C(NCCO)c1ccccc1CC[C@]1(O)CCC2=Cc3c(cnn3-c3ccc(F)cc3)C[C@@]21C1CC1 [Example 50, 2-{2-[(4aR,5R)-4a-Cyclopropyl-1-(4-fluorophenyl)-5-hydroxy-1,4,4a,5,6,7-hexahydrocyclopenta[f]indazol-5-yl]ethyl}-N-(2-hydroxyethyl)benzamide]
11	59	Cc1ccnc(CC[C@]2(O)CCC3=Cc4c(cnn4-c4ccc(F)cc4)C[C@@]32C2CC2)c1 [Example 36, (4aR,5R)-4a-Cyclopropyl-1-(4-fluorophenyl)-5-[2-(4-methylpyridin-2-yl)ethyl]-1,4,4a,5,6,7-hexahydrocyclopenta[f]indazol-5-ol]

The next lines start with the compound.

Compound	Emax [%]	EC50 [nM]
CC[C@]12Cc3cnn(-c4ccc(F)cc4)c3C=C1CC[C@@]2(O)CCc1cc(C)ccn1 [Example 33, (4aS,5R)-4a-Ethyl-1-(4-fluorophenyl)-5-[2-(4-methylpyridin-2-yl)ethyl]-1,4,4a,5,6,7-hexahydrocyclopenta[f]indazol-5-ol]	27	72
CC[C@]12Cc3cnn(-c4ccc(F)cc4)c3C=C1CC[C@@]2(O)CCc1ccc(F)cc1C(N)=O [Example 8, 2-{2-[(4aS,5R)-4a-Ethyl-1-(4-fluorophenyl)-5-hydroxy-1,4,4a,5,6,7-hexahydrocyclopenta[f]indazol-5-yl]ethyl}-5-fluorobenzamide]	47	106
CC[C@]12Cc3cnn(-c4ccc(F)cc4)c3C=C1CC[C@@]2(O)CCc1cccc(OC)c1C(N)=O [Example 37, 2-{2-[(4aS,5R)-4a-Ethyl-1-(4-fluorophenyl)-5-hydroxy-1,4,4a,5,6,7-hexahydrocyclopenta[f]indazol-5-yl]ethyl}-6-methoxybenzamide]	49	10
CC[C@]12Cc3cnn(-c4ccc(F)cc4)c3C=C1CC[C@@]2(O)CCc1ncccc1F [Example 17, (4aS,5R)-4a-Ethyl-1-(4-fluorophenyl)-5-[2-(3-fluoropyridin-2-yl)ethyl]-1,4,4a,5,6,7-hexahydrocyclopenta[f]indazol-5-ol]	44	30
CC[C@]12Cc3cnn(-c4ccc(F)cc4)c3C=C1CC[C@@]2(O)CC(O)c1cncc(F)c1 (stereo partly drawn) [Example 73, (4aS,5R)-4a-Ethyl-1-(4-fluorophenyl)-5-[2-(5-fluoropyridin-3-yl)-2-hydroxyethyl]-1,4,4a,5,6,7-hexahydrocyclopenta[f]indazol-5-ol]	34	101
CC[C@]12Cc3cnn(-c4ccc(F)cc4)c3C=C1CC[C@@]2(O)CCc1nccc(OC)c1CC(N)=O [Example 64, 2-(2-{2-[(4aS,5R)-4a-Ethyl-1-(4-fluorophenyl)-5-hydroxy-1,4,4a,5,6,7-hexahydrocyclopenta[f]indazol-5-yl]ethyl}-4-methoxypyridin-3-yl)acetamide]	37	142
NC(=O)c1cc(F)cnc1CC[C@]1(O)CCC2=Cc3c(cnn3-c3ccc(F)cc3)C[C@@]21C1CC1 [Example 4, 2-{2-[(4aR,5R)-4a-Cyclopropyl-1-(4-fluorophenyl)-5-hydroxy-1,4,4a,5,6,7-hexahydrocyclopenta[f]indazol-5-yl]ethyl}-5-fluoropyridine-3-carboxamide]	14	116
CC[C@]12Cc3cnn(-c4ccc(F)cc4)c3C=C1CC[C@@]2(O)CCc1ncccc1C(N)=O [Example 52, 2-{2-[(4aS,5R)-4a-Ethyl-1-(4-fluorophenyl)-5-hydroxy-1,4,4a,5,6,7-hexahydrocyclopenta[f]indazol-5-yl]ethyl}pyridine-3-carboxamide]	59	64
CC[C@]12Cc3cnn(-c4ccc(F)cc4)c3C=C1CC[C@@]2(O)CCc1ccccc1S(=O)(=O)C(C)C [Example 40, (4aS,5R)-4a-Ethyl-1-(4-fluorophenyl)-5-{2-[2-(propan-2-ylsulfonyl)phenyl]ethyl}-1,4,4a,5,6,7-hexahydrocyclopenta[f]indazol-5-ol]	36	101
